Assays:
Type in all cases: in vivo
[1] = test system: Ryegrass, Italian (Italian ryegrass, Lolium multiflorum); experiment: Test A preemergence, Ryegrass, Italian; settings: Preemergence; for Plant response rating, Ryegrass, Italian: 0 to 100 scale (0 no effect, 100 complete control); for Ryegrass, Italian plant response rating: 125 g ai/ha, visual injury on 0 to 100 scale (0 no effect, 100 complete control), approximately 10 days
Outline: (§1)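 Test chemicals, formulated in a non-phytotoxic solvent mixture with surfactant, were sprayed postemergence on plants 2 to 10 cm tall at the one- to two-leaf stage. Preemergence treatment was a directed soil spray onto freshly seeded pots. Both used a loam soil and sand blend.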

[2] = test system: ragweed (common ragweed, Ambrosia artemisiifolia); experiment: Test A preemergence, ragweed; settings: Preemergence; for Plant response rating, Ragweed: 0 to 100 scale (0 no effect, 100 complete control); for Ragweed plant response rating: 125 g ai/ha, visual injury on 0 to 100 scale (0 no effect, 100 complete control), approximately 10 days
Outline: as §1

[3] = test system: pigweed (Amaranthus retroflexus); experiment: Test A preemergence, pigweed; settings: for Plant response rating, Pigweed: 0 to 100 scale (0 no effect, 100 complete control); for Pigweed plant response rating: 125 g ai/ha, visual injury on 0 to 100 scale (0 no effect, 100 complete control), approximately 10 days
Outline: (§2)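 Formulated with a surfactant in a non-phytotoxic solvent, compounds are applied to loam–sand pots, either to bare soil immediately after seeding (preemergence) or to seedlings of 2 to 10 cm bearing one to two leaves (postemergence).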

[4] = test system: Ryegrass, Italian (Italian ryegrass, Lolium multiflorum); experiment: Test A postemergence, Ryegrass, Italian; settings: Postemergence
Outline: as §1

kochia (Bassia scoparia) [5] = experiment: Test A postemergence, kochia; settings: Postemergence
Outline: as §1

[6] = test system: blackgrass (Alopecurus myosuroides); experiment: Test A postemergence, blackgrass; settings: Postemergence
Outline: as §1

[7] = test system: barnyardgrass (Echinochloa crus-galli); experiment: Test A postemergence, barnyardgrass; settings: Postemergence
Outline: as §2

kochia (Bassia scoparia) [8] = experiment: Test A preemergence, kochia; settings: Preemergence; for Plant response rating, Kochia: 0 to 100 scale (0 no effect, 100 complete control); for Kochia plant response rating: 125 g ai/ha, visual injury on 0 to 100 scale (0 no effect, 100 complete control), approximately 10 days
Outline: as §1

corn (Zea mays) = experiment: Test A postemergence, corn; settings: Postemergence
Outline: as §1

[9] = test system: barnyardgrass (Echinochloa crus-galli); experiment: Test A preemergence, barnyardgrass; settings: Preemergence; for Plant response rating, Barnyardgrass: 0 to 100 scale (0 no effect, 100 complete control); for Barnyardgrass plant response rating: 125 g ai/ha, visual injury on 0 to 100 scale (0 no effect, 100 complete control), approximately 10 days
Outline: as §1

[10] = test system: Foxtail, Giant (giant foxtail, Setaria faberi); experiment: Test A preemergence, Foxtail, Giant; settings: Preemergence; for Plant response rating, Foxtail, Giant: 0 to 100 scale (0 no effect, 100 complete control); for Foxtail, Giant plant response rating: 125 g ai/ha, visual injury on 0 to 100 scale (0 no effect, 100 complete control), approximately 10 days
Outline: as §1

[11] = test system: wheat (Triticum aestivum); experiment: Test A postemergence, wheat; settings: Postemergence
Outline: as §2

[12] = test system: galium (catchweed bedstraw, Galium aparine); experiment: Test A postemergence, galium; settings: Postemergence
Outline: as §2

[13] = test system: ragweed (common ragweed, Ambrosia artemisiifolia); experiment: Test A postemergence, ragweed; settings: Postemergence
Outline: as §1

[14] = test system: Foxtail, Giant (giant foxtail, Setaria faberi); experiment: Test A postemergence, Foxtail, Giant; settings: Postemergence
Outline: as §1

[15] = test system: pigweed (Amaranthus retroflexus); experiment: Test A postemergence, pigweed; settings: Postemergence
Outline: as §1

[16] = 31 g ai/ha, visual injury, approx. 10 days
[17] = 31 g ai/ha, visual injury on 0 to 100 scale (0 no effect, 100 complete control), approx. 10 days
[18] = 125 g ai/ha, 0 to 100 scale (0 no effect, 100 complete control)
[19] = 125 g ai/ha, visual injury approx. 10 days, 0 to 100 scale (0 no effect, 100 complete control)
[20] = 31 g ai/ha, 0 to 100 scale (0 no effect, 100 complete control)
[21] = 500 g ai/ha, visual injury vs untreated controls after approx. 10 days, 0 to 100 scale (0 no effect, 100 complete control)

Q: Which results are given for `CCC(=O)OCN(c1cc(C2=NOC3(CCCC3)C2)c(C)cc1C)S(=O)(=O)C(F)(F)F` [Compound 144]?
A: Plant response rating, Ryegrass, Italian [1, 16]: 70; Ryegrass, Italian plant response rating [1]: 90; Plant response rating, Ragweed [2, 16]: 0; Ragweed plant response rating [2]: 30; Plant response rating, Pigweed [3, 16]: 70; Pigweed plant response rating [3]: 50; Plant response rating, Ryegrass, Italian [4, 17]: 0; Plant response rating, Ryegrass, Italian [4, 18]: 0; Plant response rating, Kochia (kochia (Bassia scoparia) [5]; [17]): 10; Plant response rating, Kochia (kochia (Bassia scoparia) [5]; [19]): 10; Plant response rating, Blackgrass [6, 20]: 0; Plant response rating, Blackgrass [6, 19]: 0; Plant response rating, Barnyardgrass [7, 20]: 0; Plant response rating, Barnyardgrass [7, 19]: 20; Plant response rating, Kochia (kochia (Bassia scoparia) [8]; [16]): 0; Kochia plant response rating (kochia (Bassia scoparia) [8]): 30; Plant response rating, Corn (corn (Zea mays); [17]): 0; Plant response rating, Corn (corn (Zea mays); [19]): 30; Plant response rating, Barnyardgrass [9, 16]: 20; Barnyardgrass plant response rating [9]: 100; Plant response rating, Foxtail, Giant [10, 16]: 90; Foxtail, Giant plant response rating [10]: 100; Plant response rating, Wheat [11, 17]: 0; Plant response rating, Wheat [11, 18]: 60; Plant response rating, Galium [12, 17]: 30; Plant response rating, Galium [12, 19]: 60; Plant response rating, Ragweed [13, 17]: 0; Plant response rating, Ragweed [13, 18]: 30; Plant response rating, Foxtail, Giant [14, 17]: 0; Plant response rating, Foxtail, Giant [14, 19]: 30; Plant response rating, Pigweed [15, 17]: 20; Plant response rating, Pigweed [15, 18]: 40

Q: `Cc1cc(C)c(N(COC(=O)C2CCCC2)S(=O)(=O)C(F)(F)F)cc1C1=NOC2(CCCC2)C1` [Compound 150] was tested. Which “Plant response rating, Ryegrass, Italian” value [1, 16] did it give?
A: The value was 40.

Q: And the “Ryegrass, Italian plant response rating” value [1]?
A: The value was 90.

Q: And the “Plant response rating, Ragweed” value [2, 16]?
A: The value was 0.

Q: And the “Ragweed plant response rating” value [2]?
A: Its value is 0.

Q: And the “Plant response rating, Pigweed” value [3, 16]?
A: The value was 40.

Q: And the “Pigweed plant response rating” value [3]?
A: The value was 100.

Q: And the “Plant response rating, Ryegrass, Italian” value [4, 17]?
A: Its value is 0.

Q: What about the “Plant response rating, Ryegrass, Italian” value [4, 18] of the same molecule?
A: Its value is 0.

Q: What about the “Plant response rating, Kochia” value (kochia (Bassia scoparia) [5]; [17]) of the same molecule?
A: Its value is 10.

Q: And the “Plant response rating, Kochia” value (kochia (Bassia scoparia) [5]; [18])?
A: The value was 10.

Q: And the “Plant response rating, Blackgrass” value [6, 20]?
A: The value was 0.

Q: What about the “Plant response rating, Blackgrass” value [6, 18] of the same molecule?
A: The value was 0.

Q: What about the “Plant response rating, Barnyardgrass” value [7, 20] of the same molecule?
A: Its value is 0.

Q: What about the “Plant response rating, Barnyardgrass” value [7, 18] of the same molecule?
A: Its value is 50.

Q: What about the “Plant response rating, Kochia” value (kochia (Bassia scoparia) [8]; [16]) of the same molecule?
A: The value was 0.

Q: What about the “Kochia plant response rating” value (kochia (Bassia scoparia) [8]) of the same molecule?
A: The value was 0.

Q: And the “Plant response rating, Corn” value (corn (Zea mays); [17])?
A: The value was 0.

Q: What about the “Plant response rating, Corn” value (corn (Zea mays); [18]) of the same molecule?
A: The value was 0.

Q: And the “Plant response rating, Barnyardgrass” value [9, 16]?
A: The value was 0.

Q: What about the “Barnyardgrass plant response rating” value [9] of the same molecule?
A: Its value is 90.

Q: And the “Plant response rating, Foxtail, Giant” value [10, 16]?
A: The value was 20.

Q: And the “Foxtail, Giant plant response rating” value [10]?
A: The value was 100.

Q: What about the “Plant response rating, Wheat” value [11, 17] of the same molecule?
A: Its value is 0.

Q: And the “Plant response rating, Wheat” value [11, 18]?
A: The value was 60.

Q: What about the “Plant response rating, Galium” value [12, 17] of the same molecule?
A: The value was 40.

Q: What about the “Plant response rating, Galium” value [12, 18] of the same molecule?
A: Its value is 60.

Q: What about the “Plant response rating, Ragweed” value [13, 17] of the same molecule?
A: The value was 0.

Q: What about the “Plant response rating, Ragweed” value [13, 18] of the same molecule?
A: Its value is 0.

Q: And the “Plant response rating, Foxtail, Giant” value [14, 17]?
A: Its value is 0.

Q: What about the “Plant response rating, Foxtail, Giant” value [14, 18] of the same molecule?
A: Its value is 20.

Q: What about the “Plant response rating, Pigweed” value [15, 17] of the same molecule?
A: Its value is 20.

Q: What about the “Plant response rating, Pigweed” value [15, 18] of the same molecule?
A: Its value is 40.

Q: Which results are given for `Cc1cc(C)c(C(=O)N2CCC(C#N)CC2)cc1NS(=O)(=O)C(F)(F)F` [Compound 162]?
A: Plant response rating, Ryegrass, Italian [1, 16]: 40; Ryegrass, Italian plant response rating [1]: 70; Plant response rating, Ragweed [2, 16]: 0; Ragweed plant response rating [2]: 30; Plant response rating, Pigweed [3, 16]: 100; Pigweed plant response rating [3]: 100; Plant response rating, Ryegrass, Italian [4, 17]: 0; Plant response rating, Ryegrass, Italian [4, 18]: 30; Plant response rating, Kochia (kochia (Bassia scoparia) [5]; [17]): 10; Plant response rating, Kochia (kochia (Bassia scoparia) [5]; [18]): 10; Plant response rating, Blackgrass [6, 17]: 20; Plant response rating, Blackgrass [6, 18]: 20; Plant response rating, Barnyardgrass [7, 17]: 40; Plant response rating, Barnyardgrass [7, 18]: 80; Plant response rating, Kochia (kochia (Bassia scoparia) [8]; [16]): 30; Kochia plant response rating (kochia (Bassia scoparia) [8]): 40; Plant response rating, Corn (corn (Zea mays); [17]): 20; Plant response rating, Corn (corn (Zea mays); [18]): 20; Plant response rating, Barnyardgrass [9, 16]: 0; Barnyardgrass plant response rating [9]: 60; Plant response rating, Foxtail, Giant [10, 16]: 100; Foxtail, Giant plant response rating [10]: 90; Plant response rating, Wheat [11, 17]: 30; Plant response rating, Wheat [11, 18]: 50; Plant response rating, Galium [12, 17]: 80; Plant response rating, Galium [12, 18]: 100; Plant response rating, Ragweed [13, 17]: 60; Plant response rating, Ragweed [13, 18]: 60; Plant response rating, Foxtail, Giant [14, 17]: 10; Plant response rating, Foxtail, Giant [14, 18]: 30; Plant response rating, Pigweed [15, 17]: 50; Plant response rating, Pigweed [15, 18]: 60

Q: Which results are given for `CCn1nc(C)cc(-c2cc(N(S(=O)(=O)C(F)(F)F)S(=O)(=O)C(F)(F)F)c(C)cc2C)c1=O` [Compound 52]?
A: Ryegrass, Italian plant response rating [1]: 90; Plant response rating, Ryegrass, Italian ([1]; 500 g ai/ha): 90; Ragweed plant response rating [2]: 10; Plant response rating, Ragweed ([2]; 500 g ai/ha): 60; Pigweed plant response rating [3]: 50; Plant response rating, Pigweed ([3]; 500 g ai/ha): 90; Plant response rating, Ryegrass, Italian [4, 19]: 20; Ryegrass, Italian plant response rating [4, 21]: 40; Plant response rating, Kochia (kochia (Bassia scoparia) [5]; [19]): 30; Kochia plant response rating (kochia (Bassia scoparia) [5]; [21]): 80; Plant response rating, Blackgrass [6, 19]: 0; Blackgrass plant response rating [6, 21]: 80; Plant response rating, Barnyardgrass [7, 19]: 0; Barnyardgrass plant response rating [7, 21]: 80; Kochia plant response rating (kochia (Bassia scoparia) [8]): 70; Plant response rating, Kochia (kochia (Bassia scoparia) [8]; 500 g ai/ha): 90; Plant response rating, Corn (corn (Zea mays); [19]): 0; Corn plant response rating (corn (Zea mays); [21]): 0; Barnyardgrass plant response rating [9]: 100; Plant response rating, Barnyardgrass ([9]; 500 g ai/ha): 100; Foxtail, Giant plant response rating [10]: 100; Plant response rating, Foxtail, Giant ([10]; 500 g ai/ha): 100; Plant response rating, Wheat [11, 19]: 60; Wheat plant response rating [11, 21]: 70; Plant response rating, Galium [12, 19]: 60; Galium plant response rating [12, 21]: 80; Plant response rating, Ragweed [13, 19]: 30; Ragweed plant response rating [13, 21]: 60; Plant response rating, Foxtail, Giant [14, 19]: 0; Foxtail, Giant plant response rating [14, 21]: 80; Plant response rating, Pigweed [15, 19]: 30; Pigweed plant response rating [15, 21]: 50

Reference: patent US20230278972A1, “SUBSTITUTED HALOALKYL SULFONANILIDE HERBICIDES” (FMC Corporation, priority 2020, published 2023)
